Where only a bound is given, the exact number is not on record here.

What is called IC50 is the concentration at which inhibition is half-maximal.

For one test, the target named is α4β7 integrin (Homo sapiens (Human), UniProt P13612+P26010). Nature of the test: Integrin Adhesion Assay: Protocol 1 (MAdCAM-coated plate, RPMI-8866 cells, CellTiter GLO readout). Format: cell-based.
α4β7 integrin, sequence (P13612 34-1032): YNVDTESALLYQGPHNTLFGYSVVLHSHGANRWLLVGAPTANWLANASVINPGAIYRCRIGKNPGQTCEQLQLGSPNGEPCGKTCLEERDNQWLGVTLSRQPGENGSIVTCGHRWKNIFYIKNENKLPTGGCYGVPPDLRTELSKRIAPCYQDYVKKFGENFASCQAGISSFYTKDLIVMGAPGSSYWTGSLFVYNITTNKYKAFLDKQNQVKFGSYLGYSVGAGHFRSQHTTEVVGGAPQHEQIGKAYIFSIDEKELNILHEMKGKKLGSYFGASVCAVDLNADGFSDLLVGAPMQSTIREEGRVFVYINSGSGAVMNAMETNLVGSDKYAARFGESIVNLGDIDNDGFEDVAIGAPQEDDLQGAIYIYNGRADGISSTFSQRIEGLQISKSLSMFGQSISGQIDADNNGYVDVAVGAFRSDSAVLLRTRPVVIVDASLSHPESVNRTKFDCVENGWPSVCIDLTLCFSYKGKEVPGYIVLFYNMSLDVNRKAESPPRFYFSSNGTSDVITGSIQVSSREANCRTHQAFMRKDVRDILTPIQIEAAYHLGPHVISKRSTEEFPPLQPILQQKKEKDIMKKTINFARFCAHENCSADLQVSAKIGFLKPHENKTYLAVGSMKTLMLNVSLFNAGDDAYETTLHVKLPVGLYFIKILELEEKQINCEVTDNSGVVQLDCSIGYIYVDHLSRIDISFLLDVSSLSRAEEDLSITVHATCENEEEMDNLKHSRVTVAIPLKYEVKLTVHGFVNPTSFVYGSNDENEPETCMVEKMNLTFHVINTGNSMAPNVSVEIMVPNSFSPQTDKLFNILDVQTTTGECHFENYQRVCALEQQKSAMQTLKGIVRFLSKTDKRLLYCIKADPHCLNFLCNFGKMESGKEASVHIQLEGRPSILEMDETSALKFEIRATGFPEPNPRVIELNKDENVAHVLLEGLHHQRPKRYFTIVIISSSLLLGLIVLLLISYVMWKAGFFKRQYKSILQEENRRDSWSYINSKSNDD
α4β7 integrin, sequence (P26010 20-798): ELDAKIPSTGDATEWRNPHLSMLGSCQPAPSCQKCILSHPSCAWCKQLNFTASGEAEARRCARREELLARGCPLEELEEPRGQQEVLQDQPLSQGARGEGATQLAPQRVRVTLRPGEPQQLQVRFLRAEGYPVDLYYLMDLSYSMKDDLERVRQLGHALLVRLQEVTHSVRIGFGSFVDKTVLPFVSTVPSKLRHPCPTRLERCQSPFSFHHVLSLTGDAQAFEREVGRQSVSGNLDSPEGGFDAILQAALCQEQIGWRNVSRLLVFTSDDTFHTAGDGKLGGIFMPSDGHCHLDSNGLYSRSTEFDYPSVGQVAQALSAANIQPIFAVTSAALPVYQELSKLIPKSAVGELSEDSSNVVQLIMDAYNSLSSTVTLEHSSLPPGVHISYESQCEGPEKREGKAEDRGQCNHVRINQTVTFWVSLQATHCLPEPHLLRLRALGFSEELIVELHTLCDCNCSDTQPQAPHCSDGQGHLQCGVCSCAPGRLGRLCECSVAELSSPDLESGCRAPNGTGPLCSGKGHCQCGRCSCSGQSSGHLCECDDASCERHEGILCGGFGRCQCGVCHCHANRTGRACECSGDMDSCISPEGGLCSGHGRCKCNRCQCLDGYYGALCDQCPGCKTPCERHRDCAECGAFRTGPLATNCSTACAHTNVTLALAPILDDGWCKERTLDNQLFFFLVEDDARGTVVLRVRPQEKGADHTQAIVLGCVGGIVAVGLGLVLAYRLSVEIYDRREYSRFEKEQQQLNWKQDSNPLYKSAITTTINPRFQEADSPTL
Conditions: not given
Here is the method: α4β7 and α4β1 inhibition was evaluated in vitro using at least one of the following procedures:
Integrin Adhesion Assay: Protocol 1
MAdCAM (R&D Systems, 0.1 ug) was diluted in 50 μL PBS, added to each well of an opaque ELISA plate (Thermo), and incubated overnight at 4° C. Coated plates were washed once with PBS and then blocked with 200 μL of assay buffer (10 mM HEPES, 150 mM NaCl, 1 mM MnCl2, 0.1 mM CaCl2), 1% BSA) for 1 hour at 37° C. and 5% CO2. After incubation, buffer was aspirated from the plates and 50 μL of fresh assay buffer is added. Compounds were added by a compouns dispenser (Tecan) and DMSO concentration was normalized to 1% across each plate. 50 μL of RPMI-8866 cells (2×10^6 per mL) were added to each well and the plates were incubated for 1 hour at 37° C. and 5% CO2. After incubation, plates were allowed to cool to RT for 10 minutes before being washed four times in assay buffer by an automated plate washer (BioTek). After washing, 100 μL of a 1:1 mixture of assay buffer and CellTiter GLO 2.0 reagent (Promega) were added to each well. Plates were mixed for 2 minutes at 1000 rpm and then allowed to incubate an additional 10 minutes before reading out luminescence on a Tecan Spark plate reader. Raw data was converted to percent inhibition based on DMSO only and control compound wells, and curves were analyzed by 4-parameter fit within Dotmatics software.
Turning to `Cn1c(=O)c(-c2cccc3c(C[C@H](NC(=O)[C@]4(C)CC[C@H](N5CCOC[C@@H]5C(F)(F)F)CC4)C(=O)O)cccc23)c(C(F)(F)F)c2ccccc21` (single isomer, unassigned) [Compound 347], the IC50 lay within 0.01 to 0.1 µM. On to `Cn1c(C(F)(F)F)cc(C(F)(F)F)c(-c2cccc3c(C[C@H](NC(=O)[C@]4(C)CC[C@@H](N5CCC(F)(F)CC5)CC4)C(=O)O)cccc23)c1=O` (single isomer, unassigned) [Compound 405], for which the IC50 was in the range of 0.01 to 0.1 µM. `CN(C)Cc1cc(-c2cccc3c(C[C@H](NC(=O)c4c(F)cc(N5CCOC[C@@H]5C(F)(F)F)cc4CN4CCOCC4)C(=O)O)cccc23)c2cnccc2c1` [Compound 294] yielded an IC50 of under 0.01 µM. The same measure, in the same setting: with `CN(C)Cc1cccc2c(-c3cccc4c(C[C@H](NC(=O)c5c(F)cc(N6CCOC[C@@H]6C(F)(F)F)cc5CN5CCOCC5)C(=O)O)cccc34)nccc12` [Compound 298] the figure was under 0.01 µM; with `Cc1cccc(C)c1-c1cc(F)c(F)c(C(=O)N[C@@H](Cc2cccc3c(-c4c(C(F)(F)F)c5ccccc5n(C)c4=O)cccc23)C(=O)O)c1` [Compound 306], over 1 µM; with `Cn1c(=O)c(-c2cccc3c(C[C@H](NC(=O)c4c(F)cc(N5CCC[C@@H]5C(F)(F)F)cc4F)C(=O)O)cccc23)c(C(F)(F)F)c2ccccc21` [Compound 319], 0.1 to 1 µM.

The compound `Cn1c(=O)c(-c2cccc3c(C[C@H](NC(=O)c4c(F)cc5[nH]c(CC(F)(F)F)nc5c4F)C(=O)O)cccc23)c(C(F)(F)F)c2ccccc21` [Compound 320] returned an IC50 of 0.1 to 1 µM. On the same count and under the same terms, with `Cn1c(=O)c(-c2cccc3c(C[C@H](Nc4nccc(N5CCOC[C@@H]5C(F)(F)F)c4F)C(=O)O)cccc23)c(C(F)(F)F)c2ccccc21` [Compound 326] the figure was over 1 µM. With `Cc1c(C(=O)N[C@@H](Cc2cccc3c(-c4c(C(F)(F)F)c5ccccc5n(C)c4=O)cccc23)C(=O)O)nn2ccccc12` [Compound 329], the IC50 is over 1 µM. `Cn1c(=O)c(-c2cccc3c(C[C@H](NC(=O)c4c(F)cc(N5CCO[C@H](c6ccccc6)C5)cc4F)C(=O)O)cccc23)c(C(F)(F)F)c2ccccc21` [Compound 333] gave an IC50 of over 1 µM. In turn, `Cn1c(=O)c(-c2cccc3c(C[C@H](NC(=O)c4c(F)cc(N5CCOC[C@H]5c5ccccc5)cc4F)C(=O)O)cccc23)c(C(F)(F)F)c2ccccc21` [Compound 334] registered an IC50 of over 1 µM.

`CC(C)[C@H]1COCCN1c1cc(F)c(C(=O)N[C@@H](Cc2cccc3c(-c4c(C(F)(F)F)c5ccccc5n(C)c4=O)cccc23)C(=O)O)c(F)c1` [Compound 337] displayed an IC50 of 0.1 to 1 µM.

The compound `Cn1c(=O)c(-c2cccc3c(C[C@H](NC(=O)c4c(F)cc(N5CCO[C@@H](c6ccccc6)C5)cc4F)C(=O)O)cccc23)c(C(F)(F)F)c2ccccc21` [Compound 338] had an IC50 of over 1 µM. The same measure, in the same setting: with `Cn1c(=O)c(-c2cccc3c(C[C@H](NC(=O)c4c(F)cc(N5CCOC6(CCC6)C5)cc4F)C(=O)O)cccc23)c(C(F)(F)F)c2ccccc21` [Compound 340] the figure was 0.1 to 1 µM; with `Cn1c(=O)c(-c2cccc3c(C[C@H](NC(=O)c4c(F)cc(N5CCOC(c6cccc(C(F)(F)F)c6)C5)cc4F)C(=O)O)cccc23)c(C(F)(F)F)c2ccccc21` (stereo partly drawn) [Compound 342], over 1 µM.

With `Cn1c(=O)c(-c2cccc3c(C[C@H](NC(=O)c4c(F)cc(N5CCOc6ccc(C(F)(F)F)cc65)cc4F)C(=O)O)cccc23)c(C(F)(F)F)c2ccccc21` [Compound 343], the IC50 was over 1 µM.

Consider `Cn1c(=O)c(-c2cccc3c(C[C@H](NC(=O)c4c(F)cc(N5CCOCC5c5ccc(C(F)(F)F)cc5)cc4F)C(=O)O)cccc23)c(C(F)(F)F)c2ccccc21` (stereo partly drawn) [Compound 344], for which the IC50 was over 1 µM. Take `Cn1c(=O)c(-c2cccc3c(C[C@H](NC(=O)c4c(F)cc(-c5ccc(F)c(Cl)c5)cc4F)C(=O)O)cccc23)c(C(F)(F)F)c2ccccc21` [Compound 345]: the 50% inhibitory concentration (IC50) is over 1 µM.

`Cn1c(=O)c(-c2cccc3c(C[C@H](NC(=O)c4c(F)cc5cn(CC(F)(F)F)nc5c4F)C(=O)O)cccc23)c(C(F)(F)F)c2ccccc21` [Compound 348] returned an IC50 of 0.1 to 1 µM. Same read-out and setting: with `Cc1cccc(C)c1-c1nc(C(=O)N[C@@H](Cc2cccc3c(-c4c(C(F)(F)F)c5ccccc5n(C)c4=O)cccc23)C(=O)O)c(C)n1C` [Compound 349] the figure was over 1 µM. The compound `CN1CC(C)(Cc2cc(F)c(C(=O)N[C@@H](Cc3cccc4c(-c5c(C(F)(F)F)c6ccccc6n(C)c5=O)cccc34)C(=O)O)c(F)c2)C1` [Compound 369] came in with an IC50 of over 1 µM. Turning to `Cn1c(=O)c(-c2cccc3c(C[C@H](NC(=O)c4c(F)cc(OC(F)(F)F)cc4F)C(=O)O)cccc23)c(C(F)(F)F)c2ccccc21` [Compound 370], the IC50 is over 1 µM. Take `Cn1c(=O)c(-c2cccc3c(C[C@H](NC(=O)c4c(F)cc(C5CCCCC5)cc4F)C(=O)O)cccc23)c(C(F)(F)F)c2ccccc21` [Compound 376]: the IC50 is over 1 µM.

Turning to `Cn1c(=O)c(-c2cccc3c(C[C@H](NC(=O)c4c(F)ccc(C5CCCCC5)c4F)C(=O)O)cccc23)c(C(F)(F)F)c2ccccc21` [Compound 377], the IC50 is over 1 µM. Still for that read-out and setting: in the case of `Cn1c(=O)c(-c2cccc3c(C[C@H](NC(=O)c4c(F)cc(N5CCC(F)(F)CC5)cc4F)C(=O)O)cccc23)c(C(F)(F)F)c2ccccc21` [Compound 379] it was 0.1 to 1 µM.

Turning to `CN1CCC(c2cc(F)c(C(=O)N[C@@H](Cc3cccc4c(-c5c(C(F)(F)F)c6ccccc6n(C)c5=O)cccc34)C(=O)O)c(F)c2)CC1` [Compound 383], the IC50 lay within 0.1 to 1 µM.

Compound `Cn1c(=O)c(-c2cccc3c(C[C@H](NC(=O)C45CC(N6CCC(F)(F)CC6)(C4)C5)C(=O)O)cccc23)c(C(F)(F)F)c2ccccc21` [Compound 391] displayed an IC50 of over 1 µM. In turn, `Cn1c(=O)c(-c2cccc3c(C[C@H](NC(=O)c4c(F)cc(N(CC5COC5)C5COC5)cc4F)C(=O)O)cccc23)c(C(F)(F)F)c2ccccc21` [Compound 394] returned an IC50 of 0.01 to 0.1 µM. `Cn1c(=O)c(-c2cccc3c(C[C@H](NC(=O)c4c(F)cc(N5CC(F)C5)cc4F)C(=O)O)cccc23)c(C(F)(F)F)c2ccccc21` [Compound 395] returned an IC50 of 0.1 to 1 µM.

As for `Cn1c(=O)c(-c2cccc3c(C[C@H](NC(=O)c4c(F)cc(N5CCS(=O)(=O)CC5)cc4F)C(=O)O)cccc23)c(C(F)(F)F)c2ccccc21` [Compound 398], the IC50 was 0.01 to 0.1 µM.

`Cn1c(C(F)(F)F)cc(C(F)(F)F)c(-c2cccc3c(C[C@H](NC(=O)[C@]4(C)CC[C@H](N5CCC(F)(F)CC5)CC4)C(=O)O)cccc23)c1=O` [Compound 406] had an IC50 of over 1 µM.

As for `Cn1c(=O)c(-c2cccc3c(C[C@H](NC(=O)c4c(F)cc([C@H]5C[C@H](N(C)C)C5)cc4F)C(=O)O)cccc23)c(C(F)(F)F)c2ccccc21` [Compound 417], the IC50 is over 1 µM. As for `COc1ccn2nc(C(=O)N[C@@H](Cc3cccc4c(-c5c(C(F)(F)F)c6ccccc6n(C)c5=O)cccc34)C(=O)O)cc2c1` [Compound 427], the IC50 was over 1 µM. `Cn1c(=O)c(-c2cccc3c(C[C@H](NC(=O)c4cc5ccc(N6CC(F)(F)C6)cn5n4)C(=O)O)cccc23)c(C(F)(F)F)c2ccccc21` [Compound 428]: the IC50 was over 1 µM. Consider `Cn1c(=O)c(-c2cccc3c(C[C@H](NC(=O)c4cc5ccc(N6CC(F)C6)cn5n4)C(=O)O)cccc23)c(C(F)(F)F)c2ccccc21` [Compound 429], for which the IC50 was over 1 µM.

For `Cn1c(=O)c(-c2cccc3c(CC(Nc4nccc5cccc(F)c45)C(=O)O)cccc23)c(C(F)(F)F)c2ccccc21` (stereo not drawn) [Compound 437], the IC50 is over 1 µM. `Cn1ccc(C(F)(F)F)c(-c2cccc3c(C[C@H](NC(=O)c4c(F)cc(N5CC(F)(F)OC(F)(F)C5)cc4F)C(=O)O)cccc23)c1=O` [Compound 441] displayed an IC50 of 0.01 to 0.1 µM. Still for that read-out and setting: with `COCC1CCN(c2cc(F)c(C(=O)N[C@@H](Cc3cccc4c(-c5c(C(F)(F)F)c6ccccc6n(C)c5=O)cccc34)C(=O)O)c(F)c2)C1` (stereo partly drawn) [Compound 463] the figure was over 1 µM; with `CO[C@@H]1C[C@@H](c2cc(F)c(C(=O)N[C@@H](Cc3cccc4c(-c5c(C(F)(F)F)c6ccccc6n(C)c5=O)cccc34)C(=O)O)c(F)c2)N(C)C1` [Compound 464], 0.1 to 1 µM; with `CO[C@@H]1C[C@H](c2cc(F)c(C(=O)N[C@@H](Cc3cccc4c(-c5c(C(F)(F)F)c6ccccc6n(C)c5=O)cccc34)C(=O)O)c(F)c2)N(C)C1` [Compound 465], 0.1 to 1 µM. For the compound `CN(C)Cc1ccc2c(-c3cccc4c(C[C@H](NC(=O)[C@]5(C)CC[C@H](N6CCC(F)(F)CC6)CC5)C(=O)O)cccc34)nccc2c1` [Compound 586], the IC50 is over 1 µM.

For another test, the target named is α4β1 integrin (Homo sapiens (Human), UniProt P05556+P13612). Nature of the test: Integrin Adhesion Assay: Protocol 5 (VCAM-coated plate, RPMI-8866 cells with stable LOF mutation of the ITGB7 gene). The conditions noted are these: RPMI-8866 cells with stable LOF mutation of the ITGB7 gene; read-out: Mean IC50 α4β1 KO^b. Format: cell-based. The procedure, abridged: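 RPMI-8866 B cells with CRISPR/Cas9 ITGB7 knockout (clonal, verified by flow cytometry) adhered to VCAM-coated wells for 1 h at 37° C in HEPES/NaCl buffer with 1 mM MnCl2, 0.1 mM CaCl2, 1% BSA, 1% DMSO. Bound cells quantified by CellTiter-Glo luminescence after washing; % inhibition versus DMSO and control, 4-parameter fit.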
α4β1 integrin, sequence (P13612 34-1032): as the sequence (P13612 34-1032) above
α4β1 integrin, sequence (P05556 21-798): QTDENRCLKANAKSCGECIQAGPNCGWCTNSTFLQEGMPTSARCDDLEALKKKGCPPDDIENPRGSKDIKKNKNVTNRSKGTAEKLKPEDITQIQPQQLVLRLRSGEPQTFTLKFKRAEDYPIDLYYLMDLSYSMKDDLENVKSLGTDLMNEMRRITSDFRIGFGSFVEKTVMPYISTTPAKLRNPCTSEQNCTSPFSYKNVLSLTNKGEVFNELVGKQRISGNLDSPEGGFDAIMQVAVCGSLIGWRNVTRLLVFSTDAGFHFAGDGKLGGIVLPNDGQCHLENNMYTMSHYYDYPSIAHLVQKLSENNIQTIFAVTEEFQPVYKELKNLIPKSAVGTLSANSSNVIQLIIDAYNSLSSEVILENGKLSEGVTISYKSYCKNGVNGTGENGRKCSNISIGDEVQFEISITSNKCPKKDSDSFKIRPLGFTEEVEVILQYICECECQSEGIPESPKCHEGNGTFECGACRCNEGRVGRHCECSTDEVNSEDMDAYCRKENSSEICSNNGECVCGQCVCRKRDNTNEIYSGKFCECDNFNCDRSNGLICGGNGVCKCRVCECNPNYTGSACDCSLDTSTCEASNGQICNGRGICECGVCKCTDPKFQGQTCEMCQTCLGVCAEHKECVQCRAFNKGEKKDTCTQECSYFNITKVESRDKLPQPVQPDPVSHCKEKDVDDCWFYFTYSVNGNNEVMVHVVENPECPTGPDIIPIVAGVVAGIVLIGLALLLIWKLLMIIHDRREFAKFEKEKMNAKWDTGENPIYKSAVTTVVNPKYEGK
As for `Cn1c(=O)c(-c2cccc3c(C[C@H](NC(=O)[C@]4(C)CC[C@H](N5CCOC[C@@H]5C(F)(F)F)CC4)C(=O)O)cccc23)c(C(F)(F)F)c2ccccc21` (single isomer, unassigned) [Compound 347], the IC50 is over 1 µM.

Take `Cn1c(C(F)(F)F)cc(C(F)(F)F)c(-c2cccc3c(C[C@H](NC(=O)[C@]4(C)CC[C@@H](N5CCC(F)(F)CC5)CC4)C(=O)O)cccc23)c1=O` (single isomer, unassigned) [Compound 405]: the IC50 is over 1 µM. On to `CN(C)Cc1cc(-c2cccc3c(C[C@H](NC(=O)c4c(F)cc(N5CCOC[C@@H]5C(F)(F)F)cc4CN4CCOCC4)C(=O)O)cccc23)c2cnccc2c1` [Compound 294], for which the IC50 is over 1 µM. On to `CN(C)Cc1cccc2c(-c3cccc4c(C[C@H](NC(=O)c5c(F)cc(N6CCOC[C@@H]6C(F)(F)F)cc5CN5CCOCC5)C(=O)O)cccc34)nccc12` [Compound 298], for which the IC50 is over 1 µM.

These data come from patent US20250313535A1, “ALPHA 4 BETA 7 INTEGRIN MODULATORS AND USES THEREOF” (DICE MOLECULES SV, INC., priority 2022, published 2025).
